# Results: patent US7063829B2, “Wasp family protein fragments, and use thereof” (Centre National de la Recherche Scientifique, priority 1999, dated 2006)
# B1: GST-WA: recombinant fusion of GST, WH2/A domain of human WASP (positions 404-502, SEQ ID NO: 4) and myc9E10 epitope (protein)
# chain: PSSGNGPAPPPLPPALVPAGGLAPGGGRGALLDQIRQGIQLNKTPGAPESSALQPPPQSSEGLVGALMHVMQKRSRAIHSSDEGEDQAGDEDEDDEWDDEQKLISEEDL
# modifications: left off: a dimerising Fc or GST
# Legend:
# actin polymerisation = experiment: Cellular actin polymerisation test with GST-WH2/A beads in cell extracts; format: biochemical, human
# Excerpt: The GST-WH2/A protein was absorbed onto 500 nm latex beads (Polyscience Inc., 400 Valley Road, Warrington Pa., USA) following the manufacturers' instructions.
# Moreover, the components recruited onto the surface of the beads, are targets for tyrosine kinase signalling pathways. Thanks to this in vitro system, it is now possible to study the conditions necessary for actin polymerisation in cells, a process which up to now has not been accessible to direct experimental manipulation.
# The cellular actin polymerisation test of the invention has all these characteristics. Beads measuring 200–500 nm can be produced by absorbing purified GST-WH2/A recombinant protein on their surface. […] The beads are then added to extracts prepared from supernatants of lysed cells in culture. The volume of extract necessary for an experiment is of the order of a few microlitres, reducing the cost of the experiment. These extracts have the advantage that they can be produced in a large quantity and stored for a long period, at −80° C. Before the addition of these beads, a fluorescent actin derivative (commercial actin-rhodamine) is added to the extract to make the actin polymerisation visible by epifluorescence microscopy. The actin polymerisation is observed 15 min after the addition of the beads, resulting in an accumulation of fluorescent actin around the beads. […]
# actin cytoskeleton = conditions: after some years of use; cited from earlier work
# [1] = tested on: actin polymerisation on the surface of GST-WA particles; experiment: Inhibition of actin polymerisation induced by GST-WA protein on particles in HeLa extracts; format: biochemical, human
# Experimental: Inhibition of actin polymerisation induced by GST-WA protein: 10 μm polystyrene particles (Polysciences inc.) are covered to saturation with GST-WA protein according to the manufacturer's protocol. The particles are resuspended to 1% solid in PBS (Phosphate Buffer Saline) and stored on ice. To test the independence of the actin polymerisation mechanism induced by GST-WA we prepared three solutions. Each sample contained 15 μl of HeLa extracts (supplemented with ATP, creatine phosphate and actin marked with rhodamine), 0.5 μl of GST-WA particles and 1.5 μl of PBS (A), or 1.5 μl of GST-WA protein at 1 mg/ml (B) or 1.5 μl of GST-PRO protein (PRO corresponding to the fragment delimited by the amino acids situated at positions 235 to 584 of the ActA protein of Listeria monocytogenes) at 1 mg/ml (C). 6 μl of the final mixture of these three solutions were sealed between slide and coverglass. We observed fluorescence (rhodamine actin) around the particles for thirty minutes and measured the intensity of fluorescence on a population of forty beads using a microscope (Leica) and a linear digital camera (Micromax Princeton instrument). The average intensity M (arbitrary unit) was 95,000±13,000 for sample A (positive control). For sample B, M=0±1000, the actin polymerisation on the surface of the particles was inhibited by the addition of GST-WA in solution. […]
molecule,measurement,setting,value
C=C1[C@@H](C)[C@H]2[C@H](Cc3ccccc3)NC(=O)[C@]23[C@H](OC(C)=O)/C=C/[C@@](C)(O)C(=O)[C@@H](C)C/C=C/[C@H]3[C@@H]1O [cytochalasin D],sensitivity of the screening test to known medicaments inhibiting actin polymerisation,actin polymerisation,sensitive
CCCC(CCC)C(=O)O [valproic acid],teratogenic properties due to secondary effects on the actin cytoskeleton,actin cytoskeleton,teratogenic properties
latrunculin,sensitivity of the screening test to known medicaments inhibiting actin polymerisation,actin polymerisation,sensitive
B1,average intensity M of fluorescence (rhodamine actin) around the particles,"[1]; 1.5 μl protein at 1 mg/ml added to 15 μl HeLa extracts + 0.5 μl GST-WA particles (10 μm polystyrene), thirty minutes, forty beads, PBS control (sample A) 95,000±13,000",0±1000 arbitrary unit
same,actin polymerisation on the surface of the particles after addition of the protein in solution,"[1]; protein at 1 mg/ml in solution, HeLa extracts, GST-WA particles",inhibited
